The record followed here is US20250120975A1, “INTEGRIN INHIBITORS FOR TREATMENT OF PRIMARY SCLEROSING CHOLANGITIS” (Pliant Therapeutics, Inc., priority 2023, published 2025).

The test system of data set [1] is subjects with PSC and concomitant IBD. Briefly: Phase 2a INTEGRIS-PSC: IBD symptoms (partial Mayo Score). The class given is in vivo, human. The source says:
Questionnaires to assess PROs will be administered at Baseline, Weeks 4 and 12(Parts 1, 2, and 3) and at Week 24 (Part 3 only), and will include the Chronic Liver Disease Questionnaire (CLDQ), the Itch Numeric Rating Scale (NRS), and the Partial Mayo Score (PMS), when available for use. See A. N. Naegeli, et al. (2015) International Journal of Dermatology 54 (6): 715-722 and Z. M. Younossi, et al. (1999) Gut 45:295-300, the entire contents of which are hereby incorporated by reference in their entirety.

The test system of data set [2] is subjects with PSC and suspected liver fibrosis. Briefly: Phase 2a INTEGRIS-PSC: PRO-C3 (collagen synthesis). The class given is in vivo, human. The text has this: In Parts 1 and 2, plasma, serum, and urine biomarker samples were obtained at predetermined times as indicated in the Schedule of Events (see Table B-4). In Part 3, plasma and serum biomarker samples were obtained at predetermined times as indicated in the Schedule of Events (see Table B-5 and Table B-6). These samples were used to measure specific proteins, nucleotides and/or metabolites that were elevated in subjects with fibrosis, and/or pharmacodynamic markers that could change with inhibition of integrins αVβ6 and αVβ1. The samples were also used to perform exploratory investigations using metabolomic or proteomic methods for use in future studies in subjects with fibrotic diseases.
(§1) Absolute and relative changes from Baseline in liver fibrosis biomarkers (including PRO-C3 and ELF) and in ALP are presented in numerical and graphical forms by treatment and dose utilizing data from the timepoints specified in the Schedule of Events. Changes from Baseline to Week 12(Parts 1 and 2) and Week 24 (Part 3) in magnetic resonance (MR)-based liver imaging are also evaluated, as well as changes in PROs.

Data set [3] deals with PCLivS from human liver tissue with biliary fibrosis (PSC, PBC). Briefly: Fibrotic gene expression (NanoString) in precision cut liver slices. The class given is cell-based. The following applies: for % Inhibition of expression COL1A1 / % Inhibition of expression COL1A2: PCLivS from a single PSC liver. The text has this:
A human liver tissue explant was obtained from a PSC patient undergoing liver transplantation.
Slicing: To slice, 8-mm cores were punctured from the liver tissue and were stored in ice cold UW solution until slicing. A tissue core was glued onto the center of the plunger of the specimen syringe for slicing. The core was embedded in 2% low gelling temperature agarose made up in milliQ water. The thickness of the slice was adjusted to 400 μm and was sectioned into oxygenated KHB occurs. The slices were stored in cold UW solution on ice until all slices were cut.
Culture: The compounds were diluted to 1000× concentration in 100% DMSO. The compounds were diluted in a medium with a final concentration of 0.1% DMSO before transferring the slices and making a fresh medium for each 24-H medium change. Before being used for slice culture, all media was equilibrated in the incubator at culture conditions for 30 minutes. After all slices have been cut, all slices were transferred to wells prefilled with oxygenated, warmed, and equilibrated WEGG. The slices were incubated for 1 hour in the incubator at a temperature of 37° C., 5% CO2, 80% 02, 100% humidity on shaking platform set at 55 rpm. After this one-hour recovery, the slices were transferred to wells prefilled with oxygenated, warmed, and equilibrated WEGG with appropriate treatments. The slices were distributed into the treatment groups to account for inter-core variability. The slices were cultured at 37° C., 80% 02, 5% CO2, 100% humidity on shaking platform set at 55 rpm. The medium was changed after 24 hours.
The slices were removed from the well and rinsed in PBS. Excess liquid was removed. The slices were transferred to a microtube pooling all three slices from the same treatment into one tube. The pooled slices were snap frozen in liquid nitrogen and placed on dry ice until all samples were collected and then transferred to −80° C. for storage. For media collection, 140 μL of medium was pooled from each well within a treatment group and transferred to a 96-well Axygen plate. After sealing the plate, spin down occurred at 4000×g for 10 minutes at 4° C. Then, 130 μL aliquots were transferred into 3 new plates. The plates were sealed and stored at −80° C.
(S)-4-((2-methoxyethyl)(4-(5,6,7,8-tetrahydro-1,8-naphthyridin-2-yl)butyl)amino)-2-(quinazolin-4-ylamino)butanoic acid was tested at 100 nM, 1 μM, and 10 μM. OCA, an FXR agonist in clinical trials for PSC, was used at 250 nM and 2.5 μM reflecting Cmax levels observed in clinical trials. An ALK5 inhibitor (R268712) was used at 1 μM (400 times its IC50 per manufacturer) to target max inhibition of the ALK5 receptor.
Methods: Lysis buffer was made with one third RLT buffer in RNAse-free water and 2 mg/mL proteinase K. About 100-200 μL lysis buffer was added to each pool of 3 liver slices. Samples were incubated at 55° C. in the bead bath for 2 hours and 45 minutes, vortexing every 30 minute. Samples were centrifuged and the supernatant aliquoted in 15 μL aliquots into 96-well Axygen plates.
Methods: nCounter PlexSet was run according to standard protocol. Briefly, probe A and probe B were diluted with TE-tween to Working Probe Pools and mixed with hybridization buffer. This master mix was added to the A-H PlexSets and mixed. Each PlexSet was added across a row to a 96 well qPCR plate and proteinase K was added to a final concentration of 2 mg/mL. Lysate from samples was added to appropriate wells and mixed. The plate was sealed, spun, and placed in thermocycler at 67° C. for 16 hours. Hybridized samples were pooled down columns and 35 μL were loaded on a Sprint Cartridge and run on the nCounter Sprint. Data analysis was performed in nSolver using background thresholding based on negative controls, positive control normalization, reference sample normalization and normalization to housekeeping genes (GUSB, HPRT1, POLR1B, RPLP0, SRFS4, and/or UBC). […]

The subject of data set [4] is subjects with PSC and suspected liver fibrosis. Briefly: Phase 2a INTEGRIS-PSC: liver biochemistry (ALP, ALT, AST, bilirubin). The class given is in vivo, human. How it is done: Fasting blood and urine specimens for safety laboratory assessments were or will be obtained at the time points specified in the Schedule of Events (see Table B-4, Table B-5, and Table B-6). Specimens are obtained after at least an 8-hour fast. Subjects are in a seated or supine position during blood collection. Creatinine clearance is calculated using the Cockcroft-Gault equation.
as §1

The next data set deals with other integrin receptors. In words: Integrin-ligand binding assays (selectivity). The following applies: including leukocyte-expressed integrins.
The mark [5] stands for this setting: relative to inhibition with high dose ALK5 inhibitor, PCLivS from 10 livers.

As to `COCCN(CCCCc1ccc2c(n1)NCCC2)CC[C@H](Nc1ncnc2ccccc12)C(=O)O` [Bexotegrast, (S)-4-((2-methoxyethyl)(4-(5,6,7,8-tetrahydro-1,8-naphthyridin-2-yl)butyl)amino)-2-(quinazolin-4-ylamino)butanoic acid], in data set [1] (40, 80, 160 mg, 12 weeks, Example B-3), the “IBD symptoms in patients with IBD” value is listed as “no clinically-relevant changes”. Moreover, the “IBD symptoms as measured by partial Mayo Score” value in data set [1] (patients with concomitant IBD, Example B-4) is on record as “no change”. Besides, the “PRO-C3, difference to placebo” value in data set [2] (40 mg (p<0.01) and 160 mg (p<0.05), Week 12, Example B-3) was “statistically significant differences from placebo”. Moreover, the “PRO-C3 levels relative to placebo” value in data set [2] (320 mg, Week 12, Example B-4) was “reduction”. In addition, the “collagen synthesis (PRO-C3) relative to placebo” value in data set [2] (all doses (40, 80, 160 mg), Week 12, Example B-3) is listed as “reduced”. In data set [2] (all doses, statistical significance at Week 12 for 40 mg, 160 mg and pooled groups, Example B-4), the “PRO-C3 relative to the placebo” value is “reduced”. Moreover, in data set [3] (100 nM, 2 days), the “% Inhibition of expression COL1A1” value is −6% and the “% Inhibition of expression COL1A2” value is −8%. In data set [3] (1 μM, 2 days), the “% Inhibition of expression COL1A1” value was 27% and the “% Inhibition of expression COL1A2” value came to 9%. Moreover, in data set [3] (10 μM, 2 days), the “% Inhibition of expression COL1A1” value was found to be 61% and the “% Inhibition of expression COL1A2” value was 41%. In addition, the “dose dependence of COLIA1 and COLIA2 mRNA expression” value in data set [3] (PCLivS from human PSC liver tissue, 2 days) was “reduced in a dose dependent manner”. In addition, in data set [3] (setting [5]), the “inhibition of the TGF-β-driven COL3A1 expression” value was at most 41%, the “inhibition of the TGF-β-driven COLIA1 expression” value was “up to 28%” and the “inhibition of the TGF-β-driven TGF-81 expression” value is reported as at most 48%. For the same compound, in data set [3] (≥1 μM, PCLivS from 10 livers with biliary fibrosis (6 PSC, 4 PBC), 2 days), the “trend down in overall expression of COLIA1” value was determined as 22%. Moreover, the “ALP, all participants” value in data set [4] (320 mg, over 24 weeks, compared to increased levels on placebo, Example B-5) is “statistically significant reduction”. Moreover, the “ALP, patients with elevated baseline ALP values” in data set [4] (320 mg, over 24 weeks, Example B-5) is listed as “greater reductions”. In data set [4] (40, 80, 160 mg, Week 12, Example B-3), the “ALP relative to placebo” value was “dose-dependent trend for reduction in ALP”. In addition, the “liver chemistry levels (ALT, AST, total and direct bilirubin)” value in data set [4] (all doses versus increases in placebo, Week 12, Example B-3) was “stabilization of liver chemistry levels”. Also, the “ALP relative to the placebo” value in data set [4] (subgroup with elevated ALP (>ULN) at Baseline, Week 12, Example B-4) is given as “stabilized”. For the same compound, the “selectivity for αVβ6 and αVβ1 over other integrin receptors” value with other integrin receptors is given as “highly selective”.
